pIC50: −log10 of the molar value. Calls of active or inactive are those of the source. The calls are words filed in the database; no cut-off is given here.

In one data set the test system is MDA-MB-231. The data set can be described thus: Ratio of 2ME2 IC50 to compound IC50 for human MDA-MB-231 cells.
Settings: not given
It is filed as functional.
For `COc1cc2c(cc1C(N)=O)CC[C@@H]1[C@@H]2CC[C@]2(C)C=CC[C@@H]12`, the “Ratio IC50” value is reported as 6.

As for `C=C1CC[C@H]2[C@@H]3CCc4cc(NC=O)c(OC)cc4[C@H]3CC[C@]12C`, the “Ratio IC50” value is 2.

For `C/C=C1\CC[C@H]2[C@@H]3CCc4cc(NC=O)c(OC)cc4[C@H]3CC[C@]12C`, the “Ratio IC50” value is on record as 2.

Take `COc1cc2c(cc1NC=O)CC[C@@H]1[C@@H]2CC[C@]2(C)[C@@H](C)CC[C@@H]12`: the “Ratio IC50” value is 2.

As for `C=C1CC[C@H]2[C@@H]3CCc4cc(C(N)=O)c(OC)cc4[C@H]3CC[C@]12C`, the “Ratio IC50” value was 6.

The next data set has as its system Mus musculus. The data set can be described thus: Ratio of compound AUC (0 to infinity) to 2ME2 AUC (0 to infinity) in CD1 mouse at 45 mg/m'2 of body surface, po administered as single dose. It is filed as ADME, organism-based. As to conditions: in vivo.
Consider `COc1cc2c(cc1C(N)=O)CC[C@@H]1[C@@H]2CC[C@]2(C)C=CC[C@@H]12`, for which the Ratio was determined as 23.

Another data set has as its system Mus musculus. The data set can be described thus: Ratio of compound Cmax to 2ME2 Cmax in CD1 mouse at 45 mg/m'2 of body surface, po administered as single dose. It is filed as ADME, organism-based. The note with it: in vivo.
For `COc1cc2c(cc1C(N)=O)CC[C@@H]1[C@@H]2CC[C@]2(C)C=CC[C@@H]12`, the Ratio stood at 5.

The test system of another data set is MDA-MB-231. The data set can be described thus: Antiproliferative activity against human MDA-MB-231 cells after 48 hrs by WST1 assay. The note with it: MDA-MB-231, 48 h. It is filed as functional, cell-based.
`C=Cc1cc2c(cc1OC)[C@H]1CC[C@]3(C)CCC[C@H]3[C@@H]1CC2` gave a pIC50 of 5.73.

The compound `COc1cc2c(cc1C(N)=O)CC[C@@H]1[C@@H]2CC[C@]2(C)C=CC[C@@H]12` showed a pIC50 of 6.70.

Regarding `COc1cc2c(cc1O)CC[C@@H]1[C@@H]2CC[C@]2(C)[C@@H](O)CC[C@@H]12` [2-METHOXYESTRADIOL], the pIC50 was 6.10.

`C=C1CC[C@H]2[C@@H]3CCc4cc(NC=O)c(OC)cc4[C@H]3CC[C@]12C` showed a pIC50 of 6.52.

For the compound `COc1cc2c(cc1N)CC[C@@H]1[C@@H]2CC[C@]2(C)CCC[C@@H]12`, the negative-log IC50 (pIC50) was 5.13.

`COc1cc2c(cc1NC(N)=O)CC[C@@H]1[C@@H]2CC[C@]2(C)C(=O)CC[C@@H]12` showed a pIC50 of 6.15.

In the case of `COc1cc2c(cc1NC#N)CC[C@@H]1[C@@H]2CC[C@]2(C)C(=O)CC[C@@H]12`, the pIC50 is 6.70.

With `COC(=O)Oc1cc2c(cc1OC)[C@H]1CC[C@]3(C)C(=O)CC[C@H]3[C@@H]1CC2`, the pIC50 was 4.60.

Turning to `C/C=C1\CC[C@H]2[C@@H]3CCc4cc(NC=O)c(OC)cc4[C@H]3CC[C@]12C`, the pIC50 was 6.25.

`COc1cc2c(cc1NC=O)CC[C@@H]1[C@@H]2CC[C@]2(C)[C@@H](C)CC[C@@H]12` gave a pIC50 of 6.21.

With `C=C1CC[C@H]2[C@@H]3CCc4cc(C(N)=O)c(OC)cc4[C@H]3CC[C@]12C`, the pIC50 is 6.92.

The test system of another data set is HUVEC. The data set can be described thus: Ratio of 2ME2 IC50 to compound IC50 for antiangiogenic activity against HUVEC. The class given is functional, Homo sapiens.
Settings: not given
On to `COc1cc2c(cc1C(N)=O)CC[C@@H]1[C@@H]2CC[C@]2(C)C=CC[C@@H]12`, for which the “Ratio IC50” value worked out at 5.

On to `C=C1CC[C@H]2[C@@H]3CCc4cc(NC=O)c(OC)cc4[C@H]3CC[C@]12C`, for which the “Ratio IC50” value was found to be 3.

Turning to `C/C=C1\CC[C@H]2[C@@H]3CCc4cc(NC=O)c(OC)cc4[C@H]3CC[C@]12C`, the “Ratio IC50” value amounted to 3.

For the compound `COc1cc2c(cc1NC=O)CC[C@@H]1[C@@H]2CC[C@]2(C)[C@@H](C)CC[C@@H]12`, the “Ratio IC50” value is 3.

Turning to `C=C1CC[C@H]2[C@@H]3CCc4cc(C(N)=O)c(OC)cc4[C@H]3CC[C@]12C`, the “Ratio IC50” value was determined as 5.

System in another data set: not listed separately
As to the kind of experiment: Half life in CD1 mouse at 45 mg/m'2 of body surface, po administered as single dose. The class given is ADME, organism-based. As to conditions: in vivo.
Turning to `COc1cc2c(cc1C(N)=O)CC[C@@H]1[C@@H]2CC[C@]2(C)C=CC[C@@H]12`, the half-life is 2.1 h.

`COc1cc2c(cc1O)CC[C@@H]1[C@@H]2CC[C@]2(C)[C@@H](O)CC[C@@H]12` [2-METHOXYESTRADIOL] showed a half-life of 0.3 h.

`C=C1CC[C@H]2[C@@H]3CCc4cc(C(N)=O)c(OC)cc4[C@H]3CC[C@]12C` had a half-life of 4.8 h.

Another data set relates to HUVEC. As to the kind of experiment: Antiangiogenic activity against HUVEC assessed as growth inhibition after 48 hrs by WST1 assay. The class given is functional, cell-based. As to conditions: Homo sapiens.
In the case of `C=Cc1cc2c(cc1OC)[C@H]1CC[C@]3(C)CCC[C@H]3[C@@H]1CC2`, the pIC50 is 6.24.

Turning to `COc1cc2c(cc1C(N)=O)CC[C@@H]1[C@@H]2CC[C@]2(C)C=CC[C@@H]12`, the pIC50 was 6.89.

As for `COc1cc2c(cc1O)CC[C@@H]1[C@@H]2CC[C@]2(C)[C@@H](O)CC[C@@H]12` [2-METHOXYESTRADIOL], the pIC50 is 6.17.

Regarding `C=C1CC[C@H]2[C@@H]3CCc4cc(NC=O)c(OC)cc4[C@H]3CC[C@]12C`, the pIC50 is 6.66.

For `COc1cc2c(cc1N)CC[C@@H]1[C@@H]2CC[C@]2(C)CCC[C@@H]12`, the pIC50 was 5.33.

In the case of `COc1cc2c(cc1NC(N)=O)CC[C@@H]1[C@@H]2CC[C@]2(C)C(=O)CC[C@@H]12`, the pIC50 was 6.21.

Turning to `COc1cc2c(cc1NC#N)CC[C@@H]1[C@@H]2CC[C@]2(C)C(=O)CC[C@@H]12`, the pIC50 is 6.60.

Regarding `COC(=O)Oc1cc2c(cc1OC)[C@H]1CC[C@]3(C)C(=O)CC[C@H]3[C@@H]1CC2`, the pIC50 is 4.48.

Take `C/C=C1\CC[C@H]2[C@@H]3CCc4cc(NC=O)c(OC)cc4[C@H]3CC[C@]12C`: the negative logarithm of the IC50 (pIC50) is 6.24.

`COc1cc2c(cc1NC=O)CC[C@@H]1[C@@H]2CC[C@]2(C)[C@@H](C)CC[C@@H]12`: the pIC50 was 6.23.

As for `C=C1CC[C@H]2[C@@H]3CCc4cc(C(N)=O)c(OC)cc4[C@H]3CC[C@]12C`, the negative logarithm of the IC50 (pIC50) was 6.60.

System in another data set: not listed separately
The data set can be described thus: Cmax in CD1 mouse at 45 mg/m'2 of body surface, po administered as single dose. It is filed as ADME, organism-based. The note with it: in vivo. Also on record: route oral.
Take `COc1cc2c(cc1C(N)=O)CC[C@@H]1[C@@H]2CC[C@]2(C)C=CC[C@@H]12`: the Cmax was found to be 1430 nM.

Regarding `COc1cc2c(cc1O)CC[C@@H]1[C@@H]2CC[C@]2(C)[C@@H](O)CC[C@@H]12` [2-METHOXYESTRADIOL], the Cmax was 294 nM.

For `C=C1CC[C@H]2[C@@H]3CCc4cc(C(N)=O)c(OC)cc4[C@H]3CC[C@]12C`, the highest concentration (Cmax) was 334 nM.

System in the next data set: not listed separately
The data set can be described thus: AUC (0 to infinity) in CD1 mouse at 45 mg/m'2 of body surface, po administered as single dose. Also on record: time infinity, route oral. The class given is ADME, organism-based. As to conditions: plasma.
In turn, `COc1cc2c(cc1C(N)=O)CC[C@@H]1[C@@H]2CC[C@]2(C)C=CC[C@@H]12` had an AUC(0-inf) of 3.36 µM·h.

For the compound `COc1cc2c(cc1O)CC[C@@H]1[C@@H]2CC[C@]2(C)[C@@H](O)CC[C@@H]12` [2-METHOXYESTRADIOL], the AUC(0-inf) turned out to be 0.142 µM·h.

The compound `C=C1CC[C@H]2[C@@H]3CCc4cc(C(N)=O)c(OC)cc4[C@H]3CC[C@]12C` yielded an AUC(0-inf) of 3.2 µM·h.

Another data set concerns MCF7. The data set can be described thus: Antiproliferative activity against human MCF7 cells after 48 hrs by WST1 assay. The class given is functional, cell-based.
Settings: not given
As for `C=Cc1cc2c(cc1OC)[C@H]1CC[C@]3(C)CCC[C@H]3[C@@H]1CC2`, the result was Active.

Regarding `COc1cc2c(cc1C(N)=O)CC[C@@H]1[C@@H]2CC[C@]2(C)C=CC[C@@H]12`, the outcome was Active.

On to `COc1cc2c(cc1O)CC[C@@H]1[C@@H]2CC[C@]2(C)[C@@H](O)CC[C@@H]12` [2-METHOXYESTRADIOL], for which the result was Active.

In the case of `C=C1CC[C@H]2[C@@H]3CCc4cc(NC=O)c(OC)cc4[C@H]3CC[C@]12C`, the result was Active.

Consider `COc1cc2c(cc1N)CC[C@@H]1[C@@H]2CC[C@]2(C)CCC[C@@H]12`, for which the result was Active.

Consider `COc1cc2c(cc1NC(N)=O)CC[C@@H]1[C@@H]2CC[C@]2(C)C(=O)CC[C@@H]12`, for which the outcome was Active.

Consider `COc1cc2c(cc1NC#N)CC[C@@H]1[C@@H]2CC[C@]2(C)C(=O)CC[C@@H]12`, for which the result was Active.

Regarding `COC(=O)Oc1cc2c(cc1OC)[C@H]1CC[C@]3(C)C(=O)CC[C@H]3[C@@H]1CC2`, the result was Active.

In the case of `C/C=C1\CC[C@H]2[C@@H]3CCc4cc(NC=O)c(OC)cc4[C@H]3CC[C@]12C`, the outcome was Active.

On to `COc1cc2c(cc1NC=O)CC[C@@H]1[C@@H]2CC[C@]2(C)[C@@H](C)CC[C@@H]12`, for which the result was Active.

For the compound `C=C1CC[C@H]2[C@@H]3CCc4cc(C(N)=O)c(OC)cc4[C@H]3CC[C@]12C`, the result was Active.

The record behind these values is ChEMBL document CHEMBL1154313, “Synthesis, antiproliferative, and pharmacokinetic properties of 3- and 17-double-modified analogs of 2-methoxyestradiol” (Bioorg Med Chem Lett, 2009).
